Assay results from patent US4309425A (priority 1980, dated 1982).

How the values were obtained:
[1] = system: organo-phosphorous resistant two-spotted spider mites; assay: organo-phosphorous resistant two-spotted spider mites on bean plants, spray, mortality after two days; conditions: Tetranychus urticae, 48 h, read-out: % Mortality (2 days)
Phytophthora infestans [2] = assay: whole plant or invertebrate; format: in vivo; conditions: in Solanum lycopersicum, 96 h, read-out: % control tomato late blight in a residual wash-off test
two-spotted mites = two-spotted mites on bean plants, spray, mortality after two days; format: in vivo; conditions: Tetranychus urticae, 48 h, read-out: % Mortality (2 days); for mortality at 0.00025 %: spray concentration .00025%; for mortality at 0.0005 %: spray concentration .0005%; for mortality at 0.001 %: spray concentration .001%
Protocol: Mortality was evaluated two days after spraying.
Mortality after two days is set forth below.

mosquito larvae = mosquito larvae test (failure to become adults); format: in vivo; conditions: 27°-30°, continuous light
Protocol: Twenty-five newly hatched mosquito larvae were placed in 25 ml of distilled water in 4 oz glass jars, and 10 mg diet, consisting of 2 parts liver powder and 1 part brewer's yeast, was added.

Pythium = Pythium infested soil test, cotton; format: in vivo; conditions: 1.5 kg/ha, 8 days
From the text: Pythium infested soil was placed in a 900 cc cup. Compounds of this invention were mixed at a rate of 1.5 kg/ha in a section 2" wide×2" deep×4" long to simulate an in-the-row application. Five cotton seeds were planted in the treated soil. After 8 days, the cotton plants were removed and rated for disease control.

[3] = system: bean aphids (Aphis fabae); assay: bean aphids on nasturtium leaves, spray; format: in vivo; conditions: 24 hours, read-out: 24 Hours Evaluation (% Kill)
Protocol: Stems of nasturtium leaves infested with bean aphids (Aphis fabae) were placed in individual vials of water. The leaves were sprayed to run-off with a series of suspensions of N-[N-[2-chloro-5-(trifluoromethyl)phenyl]-N-[2,4-dinitro-6-(trifluoromethyl)-phenyl]aminothio]-N,4-dimethylbenzenesulfonamide. Suspensions were prepared by dissolving 50 mg of the compound in 10 ml of acetone, adding 1 ml of 1% methocel 15, and diluting to volume with Duponol®:water at 1:3000. Evaluations with respect to % kill 24 hours later are set forth below.

Venturia inaequalis = assay: apple scab preventive test; format: in vivo; conditions: 10-12 days
Protocol: Compounds of this invention are dissolved in acetone in an amount equal to 6% of the final volume and then suspended at a concentration of 20 ppm in purified water containing 25 ppm of the surfactant Alkanol® XC (sodium alkyl naphthalene sulfonate). This suspension is sprayed to the point of run-off on apple seedlings. The following day, the plants are inoculated with a spore suspension of the fungus Venturia inaequalis and incubated in a growth room for 10-12 days. Disease ratings are then made. […] Phytotoxicity in the form of foliar burn was observed on some of the plants in association with disease control.

adult houseflies = adult houseflies spray test; format: in vivo, housefly; conditions: Musca domestica; 1% acetone solutions, 24 hours
From the text: Twenty adult houseflies were confined in each of several cylindrical stainless steel cages (7.5 cm D×4 cm high) with wire screens of the ends. These were sprayed with 1% acetone solutions of the indicated compounds.

[4] = system: adult cotton boll weevils (Anthonomus grandis); assay: adult cotton boll weevils spray test; format: in vivo; conditions: 1% acetone solution, 24 hours
Protocol: Five adult cotton boll weevils (Anthonomus grandis) were confined in a 4-oz. wide mouth jar. These were sprayed with a 1% acetone solution of the indicated compounds. Percent mortality after 24 hours is set forth below.

Rhizopus = assay: Rhizopus-corn meal mixture overspray test; conditions: 168 h, 100 ppm, 20° C., 7 days, read-out: % control Rhizopus
Protocol: Compounds of this invention were dissolved in acetone in an amount equal to 6% of final volume and then suspended at a concentration of 100 ppm in purified water containing 500 ppm of the surfactant Alkanol® XC (sodium alkyl naphthalene sulfonate). This solution was oversprayed on a Rhizopus-corn meal mixture in 6 cm aluminum cups. The sprayed plates were placed in a closed plastic bag, stored at 20° C. for 7 days, and then rated.
The untreated cups were completely covered with Rhizopus mycelial growth, but the treated cups were mostly free of growth by this disease-causing organism.

Phytophthora infestans [5] = format: in vivo; conditions: 20 ppm, 4 days
[6] = system: red-legged grasshoppers (Melanoplus femurrubrum); assay: red-legged grasshoppers spray test; format: in vivo; conditions: 10 ppm in acetone, 48 hours
Protocol: Five red-legged grasshoppers (Melanoplus femurrubrum) were confined in each of several cylindrical stainless steel cages (7.5 cm D×4 cm high) with wire screens at the end. These were sprayed with 10 ppm concentration of the indicated compounds in acetone solution. Percent mortality after 48 hours is recorded below.

[7] = system: brown dog ticks (Rhipicephalus sanguineus); assay: brown dog ticks spray test; format: in vivo; conditions: 48 h, 12.5 ppm in acetone, forty eight hours
Protocol: Four-ounce wide mouth jars, each containing 10 brown dog ticks (Rhipicephalus sanguineus), were sprayed with 12.5 ppm concentration of the indicated compounds in acetone solution. The ticks were confined with caps which were also sprayed. Forty eight hours later, percent mortality was determined.

Row | SMILES | mortality at 0.0005 % [1] [%] | mortality at 0.001 % [1] [%] | mortality at 0.002 % [1] [%] | pest or weed control at 20 ppm (Phytophthora infestans [2]) [%] | mortality at 0.00025 % (two-spotted mites) [%] | mortality at 0.0005 % (two-spotted mites) [%] | mortality at 0.001 % (two-spotted mites) [%] | EC50 (concentration at which 50% of the initial larvae fail to become adults) (mosquito larvae) [ppm] | % control Pythium (Pythium) [%] | mortality at 0.005 % ([3]; spray concentration 0.005%) [%] | mortality at 0.1 % ([3]; spray concentration 0.1%) [%] | pest or weed control at 20 ppm (Venturia inaequalis) [%] | mortality at 1 % (adult houseflies) [%] | mortality at 1 % [4] [%] | inhibition of growth at 100 ppm (Rhizopus) [%] | % control tomato late blight in a preventive test (Phytophthora infestans [5]) [%] | mortality at 10 ppm [6] [%] | mortality at 12.5 ppm [7] [%]
1 | Cc1ccc(S(=O)(=O)N(C)SN(c2cc(C(F)(F)F)ccc2Cl)c2c([N+](=O)[O-])cc([N+](=O)[O-])cc2C(F)(F)F)cc1 | 93 | 97 | 100 | 100 | 100 | 100 | 100 | 0.00081 | 0 | 100 | 100 |  |  |  |  |  |  | 
2 | CCCCN(SN(c1cc(C(F)(F)F)ccc1Cl)c1c([N+](=O)[O-])cc([N+](=O)[O-])cc1C(F)(F)F)S(=O)(=O)c1ccccc1C | 90 | 89 | 100 |  | 100 | 100 | 100 |  |  |  |  | 100 | 100 | 100 | 90 |  |  | 
3 | CCCCN(SN(c1cc(C(F)(F)F)ccc1Cl)c1c([N+](=O)[O-])cc([N+](=O)[O-])cc1C(F)(F)F)S(=O)(=O)c1ccc(C)cc1 |  |  |  | 100 |  |  |  |  | 0 |  |  | 75 | 100 | 100 |  | 100 | 100 | 100
